Where two headings read alike, the source gives them in different places.
Test system: A. non-baumannii isolates (n = 87)
Test: MIC, broth microdilution (EUCAST), A. non-baumannii isolates
Format: cell-based, Acinetobacter spp. (non-baumannii)
Conditions: for MIC: in combinations ETZ fixed at 8 mg/L
Summary of the method: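 Clinical isolates from the Spanish National Acinetobacter spp. 2020 collection were tested by EUCAST v.15 broth microdilution, including enmetazobactam on its own. Duplicate runs used A. baumannii ATCC 19606 as reference.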

SMILES: CC1(C)[C@H](C(=O)O)N2C(=O)C[C@H]2S1(=O)=O [sulbactam]
- MIC distribution 0.12: 2.3
- MIC distribution 0.25: 8.0
- MIC distribution 0.5: 44.8
- MIC distribution 1: 82.8
- MIC distribution 2: 97.7
- MIC distribution 4: 100
- MIC distribution 8: 100
- MIC distribution 16: 100
- MIC distribution 32: 100
- MIC distribution ≤0.06: 1.1
- MIC (Acinetobacter baylyi, isolate NO-Ab27, Acinetobacter baylyi, read-out: MIC): 1 µg/mL
- MIC (Acinetobacter beijerinckii, isolate NO-Ab122, Acinetobacter beijerinckii, read-out: MIC): 2 µg/mL
- MIC (Acinetobacter bereziniae, isolate NO-Ab70, Acinetobacter bereziniae, read-out: MIC): 0.5 µg/mL
- MIC (Acinetobacter bereziniae, isolate NO-Ab84, Acinetobacter bereziniae, read-out: MIC): 1 µg/mL
- MIC (Acinetobacter bereziniae, isolate NO-Ab104, Acinetobacter bereziniae, read-out: MIC): 0.5 µg/mL
- MIC (Acinetobacter bereziniae, isolate NO-Ab114, Acinetobacter bereziniae, read-out: MIC): 1 µg/mL
- MIC (Acinetobacter bereziniae, isolate NO-Ab115, Acinetobacter bereziniae, read-out: MIC): 1 µg/mL
- MIC (Acinetobacter bereziniae, isolate NO-Ab116, Acinetobacter bereziniae, read-out: MIC): 0.5 µg/mL
- MIC (Acinetobacter bereziniae, isolate NO-Ab117, Acinetobacter bereziniae, read-out: MIC): 1 µg/mL
- MIC (Acinetobacter bereziniae, isolate NO-Ab129, Acinetobacter bereziniae, read-out: MIC): 1 µg/mL
- MIC (Acinetobacter bereziniae, isolate NO-Ab156, Acinetobacter bereziniae, read-out: MIC): 1 µg/mL
- MIC (Acinetobacter calcoaceticus, isolate NO-Ab85, Acinetobacter calcoaceticus, read-out: MIC): 2 µg/mL
- MIC (Acinetobacter calcoaceticus, isolate NO-Ab94, Acinetobacter calcoaceticus, read-out: MIC): 2 µg/mL
- MIC (Acinetobacter calcoaceticus, isolate NO-Ab108, Acinetobacter calcoaceticus, read-out: MIC): 4 µg/mL
- MIC (Acinetobacter calcoaceticus, isolate NO-Ab161, Acinetobacter calcoaceticus, read-out: MIC): 4 µg/mL
- MIC (Acinetobacter calcoaceticus, isolate NO-Ab198, Acinetobacter calcoaceticus, read-out: MIC): 2 µg/mL
- MIC (Acinetobacter calcoaceticus, isolate NO-Ab205, Acinetobacter calcoaceticus, read-out: MIC): 2 µg/mL
- MIC (Acinetobacter calcoaceticus, isolate NO-Ab211, Acinetobacter calcoaceticus, read-out: MIC): 1 µg/mL
- MIC (Acinetobacter courvalinii, isolate NO-Ab216, Acinetobacter courvalinii, read-out: MIC): 0.5 µg/mL
- MIC (Acinetobacter dispersus, isolate NO-Ab2, Acinetobacter dispersus, read-out: MIC): 0.5 µg/mL
- MIC (Acinetobacter guillouiae, isolate NO-Ab69, Acinetobacter guillouiae, read-out: MIC): 1 µg/mL
- MIC (Acinetobacter guillouiae, isolate NO-Ab74, Acinetobacter guillouiae, read-out: MIC): 0.5 µg/mL
- MIC (Acinetobacter haemolyticus, isolate NO-Ab92, Acinetobacter haemolyticus): 0.5 µg/mL
- MIC (Acinetobacter haemolyticus, isolate NO-Ab177, Acinetobacter haemolyticus): 0.5 µg/mL
- MIC (Acinetobacter haemolyticus, isolate NO-Ab217, Acinetobacter haemolyticus): 0.25 µg/mL
- MIC (Acinetobacter johnsonii, isolate NO-Ab101, Acinetobacter johnsonii, read-out: MIC): 1 µg/mL
- MIC (Acinetobacter junii, isolate NO-Ab76, Acinetobacter junii, read-out: MIC): 0.5 µg/mL
- MIC (Acinetobacter junii, isolate NO-Ab77, Acinetobacter junii, OXA-24/40, read-out: MIC): 0.5 µg/mL
- MIC (Acinetobacter lactucae, isolate NO-Ab60, Acinetobacter dijkshoorniae, read-out: MIC): 1 µg/mL
- MIC (Acinetobacter lactucae, isolate NO-Ab63, Acinetobacter dijkshoorniae, read-out: MIC): 1 µg/mL
- MIC (Acinetobacter lactucae, isolate NO-Ab65, Acinetobacter dijkshoorniae, read-out: MIC): 1 µg/mL
- MIC (Acinetobacter lactucae, isolate NO-Ab86, Acinetobacter dijkshoorniae, read-out: MIC): 1 µg/mL
- MIC (Acinetobacter lactucae, isolate NO-Ab88, Acinetobacter dijkshoorniae, read-out: MIC): 0.5 µg/mL
- MIC (Acinetobacter lactucae, isolate NO-Ab91, Acinetobacter dijkshoorniae, read-out: MIC): 1 µg/mL
- MIC (Acinetobacter lactucae, isolate NO-Ab121, Acinetobacter dijkshoorniae, read-out: MIC): 2 µg/mL
- MIC (Acinetobacter lactucae, isolate NO-Ab125, Acinetobacter dijkshoorniae, read-out: MIC): 1 µg/mL
- MIC (Acinetobacter lactucae, isolate NO-Ab160, Acinetobacter dijkshoorniae, read-out: MIC): 0.5 µg/mL
- MIC (Acinetobacter nosocomialis, isolate NO-Ab43, Acinetobacter nosocomialis, read-out: MIC): 2 µg/mL
- MIC (Acinetobacter nosocomialis, isolate NO-Ab68, Acinetobacter nosocomialis, OXA-24/40, read-out: MIC): 1 µg/mL
- MIC (Acinetobacter nosocomialis, isolate NO-Ab98, Acinetobacter nosocomialis, read-out: MIC): 2 µg/mL
- MIC (Acinetobacter nosocomialis, isolate NO-Ab208, Acinetobacter nosocomialis, read-out: MIC): 0.5 µg/mL

From article PMC12888861, “Antibacterial activity of enmetazobactam against Acinetobacter spp.: a molecular dissection of mechanism of action and resistance determinants” (Antimicrobial Agents and Chemotherapy, 2025)
